Measurements reported in patent US9637493B2, “Substituted pyrrolopyrimidines as HDM2 inhibitors” (Merck Sharp & Dohme Corp., priority 2012, dated 2017).

Biological target: HDM2 (Homo sapiens (Human), UniProt Q00987)
Assay: HDM2 FRET assay (inhibition of p53 peptide binding to HDM2)
Details: truncated HDM2 residues 17 to 125, 0.5 nM; FITC labeled 8-mer peptide 3 nM; two hour incubation at room temperature
Method: Methods: An HDM2 FRET assay was developed to assess the compounds' inhibitory activity towards binding of p53 protein. […] (containing p53 binding surface, Science (1994) 265, 346-355), with N-terminal His and Thioredoxin tag was generated in pET32a expression vector and expressed in E. coli strain BL21(DE3)Rosetta. Protein was purified using Ni-affinity chromatography, followed by size exclusion chromatography using Superdex 75 26/60 column. […] After two hour incubation at room temperature in a humidified chamber plates were read on EnVision plate reader with the following settings: excitation: UV, […], two emission filters: 520 nm and 495 nm respectively. […] IC50 DETERMINATIONS: Dose-response curves were plotted from the inhibition data, from 10 point serial dilutions of inhibitory compounds. Concentration of compound was plotted against em520/Cem495 ratio signal. To generate IC50 values, the dose-response curves were fitted to a standard sigmoidal curve and IC50 values were derived by nonlinear regression analysis.

Sequence of HDM2 (Q00987 17-125): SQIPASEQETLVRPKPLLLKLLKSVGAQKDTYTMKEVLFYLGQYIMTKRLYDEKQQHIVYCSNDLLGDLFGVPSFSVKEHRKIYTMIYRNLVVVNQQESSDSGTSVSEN

**Q.** For `C[C@H]1CC[C@H](Cn2ccc3nc(-c4noc(=O)[nH]4)nc(-c4cccc(Cl)c4)c32)CC1` [Example 4.2, 3-{4-(3-chlorophenyl)-5-[(trans-4-methylcyclohexyl)methyl]-5H-pyrrolo[3,2-d]pyrimidin-2-yl}-1,2,4-oxadiazol-5(4H)-one], which IC50 is on record?
**A.** The IC50 was 132 nM.

**Q.** `C[C@H]1CC[C@H](Cn2ccc3nc(C(=O)O)nc(-c4cncc(Cl)c4)c32)CC1` [Example 4.3, 4-(5-chloropyridin-3-yl)-5-[(trans-4-methylcyclohexyl)methyl]-5H-pyrrolo[3,2-d]pyrimidine-2-carboxylic acid] was tested. Which IC50 did it give?
**A.** Its IC50 is 247 nM.

**Q.** With `C[C@H]1CC[C@H](Cn2ccc3nc(-c4noc(=O)[nH]4)nc(-c4cncc(Cl)c4)c32)CC1` [Example 4.4, 3-{4-(5-chloropyridin-3-yl)-5-[(trans-4-methylcyclohexyl)methyl]-5H-pyrrolo[3,2-d]pyrimidin-2-yl}-1,2,4-oxadiazol-5(4H)-one] as the compound, how does the IC50 read?
**A.** Its IC50 is 57 nM.

**Q.** With `C[C@H]1CC[C@H](Cn2ccc3nc(-c4n[nH]c(=O)o4)nc(-c4cncc(Cl)c4)c32)CC1` [Example 4.5, 5-{4-(5-chloropyridin-3-yl)-5-[(trans-4-methylcyclohexyl)methyl]-5H-pyrrolo[3,2-d]pyrimidin-2-yl}-1,3,4-oxadiazol-2(3H)-one] as the compound, how does the IC50 read?
**A.** The IC50 was 95 nM.

**Q.** `Cc1cn(C[C@H]2CC[C@H](C)CC2)c2c(-c3cccc(Cl)c3)nc(C(=O)O)nc12` [Example 5.1, 4-(3-chlorophenyl)-7-methyl-5-[(trans-4-methylcyclohexyl)methyl]-5H-pyrrolo[3,2-d]pyrimidine-2-carboxylic acid] was tested. Which IC50 did it give?
**A.** Its IC50 is 226 nM.

**Q.** For `Cc1cn(C[C@H]2CC[C@H](C)CC2)c2c(-c3cccc(Cl)c3)nc(-c3noc(=O)[nH]3)nc12` [Example 5.2, 3-{4-(3-chlorophenyl)-7-methyl-5-[(trans-4-methylcyclohexyl)methyl]-5H-pyrrolo[3,2-d]pyrimidin-2-yl}-1,2,4-oxadiazol-5(4H)-one], which IC50 is on record?
**A.** Its IC50 is 107 nM.

**Q.** For `Cc1cn(C[C@H]2CC[C@H](C)CC2)c2c(-c3cncc(Cl)c3)nc(C(=O)O)nc12` [Example 5.3, 4-(5-chloropyridin-3-yl)-7-methyl-5-[(trans-4-methylcyclohexyl)methyl]-5H-pyrrolo[3,2-d]pyrimidine-2-carboxylic acid], which IC50 is on record?
**A.** The IC50 was 88 nM.

**Q.** With `Cc1cn(C[C@H]2CC[C@H](C)CC2)c2c(-c3cncc(Cl)c3)nc(-c3noc(=O)[nH]3)nc12` [Example 5.4, 3-{4-(5-chloropyridin-3-yl)-7-methyl-5-[(trans-4-methylcyclohexyl)methyl]-5H-pyrrolo[3,2-d]pyrimidin-2-yl}-1,2,4-oxadiazol-5(4H)-one] as the compound, how does the IC50 read?
**A.** The IC50 was 36 nM.

**Q.** How did the IC50 turn out when `C[C@H]1CC[C@H](Cn2cc(-c3ccccc3)c3nc(C(=O)O)nc(-c4cncc(Cl)c4)c32)CC1` [Example 5.5, 4-(5-chloropyridin-3-yl)-5-[(trans-4-methylcyclohexyl)methyl]-7-phenyl-5H-pyrrolo[3,2-d]pyrimidine-2-carboxylic acid] was run?
**A.** The IC50 was 72 nM.

**Q.** `C[C@H]1CC[C@H](Cn2cc(Cc3ccccc3)c3nc(-c4n[nH]c(=O)o4)nc(-c4cncc(Cl)c4)c32)CC1` [Example 5.6, 5-{7-benzyl-4-(5-chloropyridin-3-yl)-5-[(trans-4-methylcyclohexyl)methyl]-5H-pyrrolo[3,2-d]pyrimidin-2-yl}-1,3,4-oxadiazol-2(3H)-one] was tested. Which IC50 did it give?
**A.** Its IC50 is 54 nM.

**Q.** Which IC50 does the source give for `CC(C)Cc1cn(C[C@H]2CC[C@H](C)CC2)c2c(-c3cncc(Cl)c3)nc(C(=O)O)nc12` [Example 5.7, 4-(5-chloropyridin-3-yl)-5-[(trans-4-methylcyclohexyl)methyl]-7-(2-methylpropyl)-5H-pyrrolo[3,2-d]pyrimidine-2-carboxylic acid] here?
**A.** Its IC50 is 71 nM.

**Q.** How did the IC50 turn out when `CC(C)Cc1cn(C[C@H]2CC[C@H](C)CC2)c2c(-c3cncc(Cl)c3)nc(-c3noc(=O)[nH]3)nc12` [Example 5.8, 3-[4-(5-chloropyridin-3-yl)-5-[(trans-4-methylcyclohexyl)methyl]-7-(2-methylpropyl)-5H-pyrrolo[3,2-d]pyrimidin-2-yl]-1,2,4-oxadiazol-5(4H)-one] was run?
**A.** The IC50 was 35 nM.

**Q.** `C[C@H]1CC[C@H](Cn2cc(CCc3cccnc3)c3nc(C(=O)O)nc(-c4cncc(Cl)c4)c32)CC1` [Example 6.1, 4-(5-chloropyridin-3-yl)-5-[(trans-4-methylcyclohexyl)methyl]-7-(2-pyridin-3-ylethyl)-5H-pyrrolo[3,2-d]pyrimidine-2-carboxylic acid] was tested. Which IC50 did it give?
**A.** The IC50 was 47 nM.

**Q.** With `C[C@H]1CC[C@H](Cn2cc(CCc3cccnc3)c3nc(-c4noc(=O)[nH]4)nc(-c4cncc(Cl)c4)c32)CC1` [Example 6.2, 3-[4-(5-chloropyridin-3-yl)-5-[(trans-4-methylcyclohexyl)methyl]-7-(2-pyridin-3-ylethyl)-5H-pyrrolo[3,2-d]pyrimidin-2-yl]-1,2,4-oxadiazol-5(4H)-one] as the compound, how does the IC50 read?
**A.** Its IC50 is 13 nM.

**Q.** With `C[C@H]1CC[C@H](Cn2cc(Cc3cccnc3)c3nc(-c4noc(=O)[nH]4)nc(-c4cncc(Cl)c4)c32)CC1` [Example 7.1, 3-[4-(5-chloropyridin-3-yl)-5-[(trans-4-methylcyclohexyl)methyl]-7-(pyridin-3-ylmethyl)-5H-pyrrolo[3,2-d]pyrimidin-2-yl]-1,2,4-oxadiazol-5(4H)-one] as the compound, how does the IC50 read?
**A.** Its IC50 is 52 nM.

**Q.** For `C[C@H]1CC[C@H](Cn2c(C(F)c3ccccc3F)cc3nc(-c4noc(=O)[nH]4)nc(-c4cncc(Cl)c4)c32)CC1` (stereo partly drawn) [Example 8.2, 3-{4-(5-chloropyridin-3-yl)-6-[fluoro(2-fluorophenyl)methyl]-5-[(trans-4-methylcyclohexyl)methyl]-5H-pyrrolo[3,2-d]pyrimidin-2-yl}-1,2,4-oxadiazol-5(4H)-one], which IC50 is on record?
**A.** Its IC50 is 2 nM.
